Experimental findings from patent publication EP2292587A1, “PHARMACEUTICAL COMPOSITION FOR INHIBITING THE TRANSCRIPTION FACTOR INDUCIBLE BY HYPOXIA, MODULATORS OF PATHOLOGICAL PROCESSES OF ANGIOGENESIS, ONCOGENESIS, INFLAMMATION, APOPTOSIS, AND CELLULAR THERAPY” (Fundacion De La Comunidad Valenciana Centro De …, priority 2008, dated 2009) are described below.

The subject of assay [1] is HIF-1α. The experiment in a line: Western blot of HIF-1alpha in dental pulp stem cells. The settings on record: 0.5 µM, physical hypoxia. In kind it is cell-based, human. From the text: The culture medium used was Low-Glucose DMEM supplemented with 10% fetal bovine serum. The human dental pulp mesenchymal stem line [Gronthos S, et al., "Postnatal human dental pulp stem cells (DPSCs) in vitro and in vivo" Proc Natl Acad Sci U S A, 2000 Dec 5; 97(25):13625-30.; Gronthos S et al.,." Stem cell properties of human dental pulp stem cells" J Dent Res, 2002 Aug; 81(8):531-5], obtained from human third molars from adults (19-29 years of age), was provided by the Cardioregeneration Dept. of the CIPF. The cells were seeded at a density of 2000 cells/cm^2, and when they reached a 90% confluence they were subcultured again by means of trypsinization.
The dental pulp cells were seeded at 2000 cells/cm^2 in 21 cm^2 plates. […]

The subject of assay [2] is human dental pulp stem cells. The assay is described as follows: Annexin V/PI apoptosis and death in dental pulp stem cells. Type of assay: cell-based. How it is done: The apoptosis studies were conducted from cell cultures subjected to normoxic and hypoxic conditions in the presence and absence of the compound at 0.5 µM. The presence of phosphatidylserine in the outer part of the plasma membrane, characteristic of apoptotic processes, was detected using Annexin V (fluorescent dye Annexin V-FITC Apoptosis Detection Kit (BD Pharmingen, BD Biosciences) according to the manufacturer's instructions. The cells subjected to the different conditions were incubated with Annexin V for 30 minutes at 4°C. The cells were then incubated with propidium iodide (PI) and analyzed in a FACScalibur flow cytometer ([…]). PI-/AnnexinV+ cells were defined as early apoptotic cells, PI+/AnnexinV+ cells as late apoptotic cells and PI+/AnnexinV- cells as dead cells. Therefore, the number of total apoptotic cells will be the sum of early and late apoptotic cells.

Assay [3] relates to HCT116/p53+/+ cells. The experiment in a line: cell cycle distribution by flow cytometry, HCT116/p53+/+. Type of assay: cell-based, human. The source says:
It was investigated if the activation of DDR by FM19G11 caused a delay in the cycle progress through the G1/S phases in HCT116 tumor cells, as has been described for other DNA-damaging agents (.Lim, DS, Kim, ST, Xu, B, Maser, RS, Lin, J, Petrini, JH et al., (2000) ATM phosphorylates p95/nbs1 in an S-phase checkpoint pathway. Nature 404: 613-7.; Jazayeri, A, Falck, J, Lukas, C, Bartek, J, Smith, GC, Lukas, J et al., (2006) ATM- and cell cycle-dependent regulation of ATR in response to DNA double-strand breaks. Nat Cell Biol 8: 37-45; Liu, JS, Kuo, SR, Beerman, TA and Melendy, T, (2003) Induction of DNA damage responses by adozelesin is S phase-specific and dependent on active replication forks. Mol Cancer Ther 2: 41-7; Ranjan, P and Heintz, NH, (2006) S-phase arrest by reactive nitrogen species is bypassed by okadaic acid, an inhibitor of protein phosphatases PP1/PP2A. Free Radic Biol Med 40: 247-59.). The HCT116 p53+/+ and HCT116 p53-/- cells were exposed for 3 or 6 days to the carrier (DMSO) or to FM19G11 (0.5, 1, 5, 10 µM). […] (Figure 24).
A- The HCT116/p53+/+ cells and B-HCT116/p53-/- cells were exposed to different concentrations of FM19G11 (0.5, 1, 5, 10 µM) or carrier for 3 or 6 days to analyze the distribution of cells in the different cell cycle phases by means of flow cytometry. […]

Assay [4] concerns HCT116/p53-/-. The assay is described as follows: clonicity assay, HCT116/p53-/-. In kind it is cell-based, human. The procedure:
Clonicity assays were conducted to determine the toxicity of FM19G11 in p53-proficient (HT29 and HCT116/p53^+/+) and p53-deficient (HCT116/p53^-/-) tumor cells. Once the HT-29, HCT116/p53^+/+ and HCT116/p53^-/- cells were adhered to the culture plate, they were stimulated with increasing concentrations of FM19G11 (0.5, 1, 5, 10, 20, 50 µM) for 72 hours. After 10 days of stimulation, the number of colonies formed in the plates of treated and untreated cells was determined.
Results of the clonicity assays of HT29 human colon cancer cells, HCT116 cells treated with FM19G11 were monitored up to 10 after the treatment (Figure 28). The IC50 was determined by extrapolating the percentage with the concentration. FM19G11 was used at concentrations: 0.5, 1, 5, 10, 50, 100, 200 µM

For assay [5], the system named is HCT116/p53-/-. The experiment in a line: anchorage-independent growth in semisolid agar, HCT116/p53-/-. In kind it is cell-based, human. Particulars: 0.5 µM, 10 days, versus DMSO. The procedure: Anchorage-independent cell growth is a study which allows predicting the tumorigenicity of tumor cells in vivo. Anchorage-independent cell growth studies were performed for HT29, HCT116/p53^+/+ and HCT116/p53^-/- cells in semisolid agar which were monitored daily to determine the efficiency of the formation of colonies in the presence of carrier (DMSO) or FM19G11. To that end, the starting material was 75 x 10^3 cells suspended in semisolid agar, which were maintained until 10 days later. […] A reduction of the formation of colonies in the HCT116/p53^-/- cells is not observed. The growth of colonies was quantified in three independent experiments by means of counting colonies in the 4 x magnification optical field of an inverted optical microscope.

As to `Cc1ccc(C(=O)COC(=O)c2cccc(NC(=O)c3ccc([N+](=O)[O-])cc3[N+](=O)[O-])c2)cc1` [FM19G11, 2-oxo-2-(p-tolyl)ethyl 3-((2,4-dinitro)benzamido)benzoate], in assay [1], the “expression of HIF-1α” value is recorded as “inhibited”. In assay [2] (0.5 µM), the “death (decreased in hypoxia)” value is “reverts the decrease in death”. In addition, the “number of total apoptotic cells (reduced by hypoxia)” value in assay [2] (0.5 µM, 72 hours) was “capable of reverting said effect”. Besides, the “expression of the tumor suppressor p53” value in assay [2] (hypoxia) is on record as “recovery of p53”. The “G1/S phase cycle arrest” value in assay [3] (5 or 10 µM, after 72 hours, more evident after 6 days) was “caused G1/S phase cycle arrest”. In addition, the “S phase cycle arrest on simultaneous incubation with rapamycin” value in assay [3] (FM19G11 (10 µM) + rapamycin (100 pmol)) is recorded as “prevented”. Also, the “increase of resistance by loss of function of p53 (ratio of IC50 values in HCT116)” value in assay [4] (HCT116/p53-/- versus HCT116/p53+/+) is reported as 4.71 times. In addition, in assay [4] (Homo sapiens, HCT-116, stimulated 72 hours, colonies counted after 10 days, read-out: survival IC50), the half-maximal inhibitory concentration (IC50) amounted to 16.5 µM. Besides, the “reduction of the formation of colonies in semisolid agar” value in assay [5] is reported as “not observed”.
